Source: publication PMC5975062 (Alzheimer's & Dementia : Translational Research & Clinical …, 2015)
“Also recorded” adds a separate entry of the source.

Assays:
[1] = biological target: QC activity in serum (Homo sapiens, UniProt Q16769); conditions: after single and multiple doses
[2] = biological target: QC activity in CSF (Homo sapiens, UniProt Q16769); conditions: after single and multiple doses
QC activity in CSF, sequence (Q16769 29-361): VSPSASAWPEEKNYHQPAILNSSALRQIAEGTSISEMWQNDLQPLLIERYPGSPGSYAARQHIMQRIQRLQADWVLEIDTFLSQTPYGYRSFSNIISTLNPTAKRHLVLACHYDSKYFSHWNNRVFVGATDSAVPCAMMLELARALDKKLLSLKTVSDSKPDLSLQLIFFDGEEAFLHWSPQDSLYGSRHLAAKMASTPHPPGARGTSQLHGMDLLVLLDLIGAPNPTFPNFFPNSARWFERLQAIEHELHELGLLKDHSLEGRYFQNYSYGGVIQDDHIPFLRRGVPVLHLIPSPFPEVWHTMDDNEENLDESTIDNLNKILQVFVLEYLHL

QC activity in serum, sequence (Q16769 29-361): as above

For CCCOc1ccc([C@H]2CNC(=O)N2c2ccc3[nH]cnc3c2)cc1 [PQ912], the “QC activity in serum” value [1] was “inhibited in a dose-related manner; also recorded: decreased in a dose-related manner” and the “QC activity in CSF” value [2] was “inhibited in a dose-related manner; also recorded: decreased in a dose-related manner”.
